Patent US12391648B2, “Pyridyloxy thioester derivative and preparation method therefor, herbicidal composition, and application” (Qingdao Kingagroot Chemical Compound Co., Ltd., priority 2018, dated 2025)

Experiments:
Assay in all cases: Post-emergence test experiment (Table 3, 1000 g/ha)
Type in all cases: in vivo
Conditions in all cases: post-emergence spray, after 3 weeks, fresh weight inhibition
Abutilon theophrasti = tested on: Abutilon theophrasti
Outline: (§1)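 Weed seeds sown in soil-filled pots in greenhouse, sprayed at 2-3 leaf stage (2 weeks after sowing) with compound in acetone/tween-80 plus methyl oleate emulsible concentrate (1.5 L/ha) diluted in water. Fresh-weight growth inhibition scored after 3 weeks on 0-5 scale (5: >85%, 0: <5%).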

Digitaria sanguinalis = tested on: Digitaria sanguinalis
Outline: as §1

Galium spurium = tested on: Galium spurium
Outline: as §1

Leptochloa chinensis = tested on: Leptochloa chinensis
Outline: as §1

Monochoria vaginalis = tested on: Monochoria vaginalis
Outline: as §1

Setaria viridis = tested on: Setaria viridis
Outline: as §1

SMILES	Activity level (growth inhibition rate) Abutilon theophrasti (Abutilon theophrasti)	Activity level (growth inhibition rate) Digitaria sanguinalis (Digitaria sanguinalis)	Activity level (growth inhibition rate) Galium spurium (Galium spurium)	Activity level (growth inhibition rate) Leptochloa chinensis (Leptochloa chinensis)	Activity level (growth inhibition rate) Monochoria Vaginalis (Monochoria vaginalis)	Activity level (growth inhibition rate) Setaria viridis (Setaria viridis)
CC(Oc1nc(F)c(Cl)c(N)c1Cl)C(=O)SC(F)(F)C(F)(F)F (stereo not drawn) [Compound 76]	5 (Level 5: the growth inhibition rate is greater than 85%)	5 (Level 5: the growth inhibition rate is greater than 85%)	5 (Level 5: the growth inhibition rate is greater than 85%)	5 (Level 5: the growth inhibition rate is greater than 85%)	5 (Level 5: the growth inhibition rate is greater than 85%)	5 (Level 5: the growth inhibition rate is greater than 85%)
CC(Oc1nc(F)c(Cl)c(N)c1Cl)C(=O)Sc1cccc(N(C)C)c1 (stereo not drawn) [Compound 109]	5 (Level 5: the growth inhibition rate is greater than 85%)	5 (Level 5: the growth inhibition rate is greater than 85%)	5 (Level 5: the growth inhibition rate is greater than 85%)	5 (Level 5: the growth inhibition rate is greater than 85%)	5 (Level 5: the growth inhibition rate is greater than 85%)	5 (Level 5: the growth inhibition rate is greater than 85%)
CC(Oc1nc(F)c(Cl)c(N)c1Cl)C(=O)SCC(F)(F)F (stereo not drawn) [Compound 78]	5 (Level 5: the growth inhibition rate is greater than 85%)	5 (Level 5: the growth inhibition rate is greater than 85%)	5 (Level 5: the growth inhibition rate is greater than 85%)	5 (Level 5: the growth inhibition rate is greater than 85%)	5 (Level 5: the growth inhibition rate is greater than 85%)	5 (Level 5: the growth inhibition rate is greater than 85%)
CC(Oc1nc(F)c(Cl)c(N)c1Cl)C(=O)Sc1cccc(Cl)c1 (stereo not drawn) [Compound 110]	5 (Level 5: the growth inhibition rate is greater than 85%)	5 (Level 5: the growth inhibition rate is greater than 85%)	5 (Level 5: the growth inhibition rate is greater than 85%)	5 (Level 5: the growth inhibition rate is greater than 85%)	5 (Level 5: the growth inhibition rate is greater than 85%)	5 (Level 5: the growth inhibition rate is greater than 85%)
CC(Oc1nc(F)c(Cl)c(N)c1Cl)C(=O)SC(N)=O (stereo not drawn) [Compound 100]	5 (Level 5: the growth inhibition rate is greater than 85%)	5 (Level 5: the growth inhibition rate is greater than 85%)	5 (Level 5: the growth inhibition rate is greater than 85%)	5 (Level 5: the growth inhibition rate is greater than 85%)	5 (Level 5: the growth inhibition rate is greater than 85%)	5 (Level 5: the growth inhibition rate is greater than 85%)
CC(Oc1nc(F)c(Cl)c(N)c1Cl)C(=O)SCCF (stereo not drawn) [Compound 158]	5 (Level 5: the growth inhibition rate is greater than 85%)	5 (Level 5: the growth inhibition rate is greater than 85%)	5 (Level 5: the growth inhibition rate is greater than 85%)	5 (Level 5: the growth inhibition rate is greater than 85%)	5 (Level 5: the growth inhibition rate is greater than 85%)	5 (Level 5: the growth inhibition rate is greater than 85%)
CCCCCCCSC(=O)C(C)Oc1nc(F)c(Cl)c(N)c1Cl (stereo not drawn) [Compound 139]	5 (Level 5: the growth inhibition rate is greater than 85%)	5 (Level 5: the growth inhibition rate is greater than 85%)	5 (Level 5: the growth inhibition rate is greater than 85%)	5 (Level 5: the growth inhibition rate is greater than 85%)	5 (Level 5: the growth inhibition rate is greater than 85%)	5 (Level 5: the growth inhibition rate is greater than 85%)
CCCCCCCCSC(=O)C(C)Oc1nc(F)c(Cl)c(N)c1Cl (stereo not drawn) [Compound 73]	5 (Level 5: the growth inhibition rate is greater than 85%)	5 (Level 5: the growth inhibition rate is greater than 85%)	5 (Level 5: the growth inhibition rate is greater than 85%)	5 (Level 5: the growth inhibition rate is greater than 85%)	5 (Level 5: the growth inhibition rate is greater than 85%)	5 (Level 5: the growth inhibition rate is greater than 85%)
CSC(=O)C(C)Oc1ncc(Cl)c(N)c1C (stereo not drawn) [Compound 21]	5 (Level 5: the growth inhibition rate is greater than 85%)	5 (Level 5: the growth inhibition rate is greater than 85%)	5 (Level 5: the growth inhibition rate is greater than 85%)	5 (Level 5: the growth inhibition rate is greater than 85%)	5 (Level 5: the growth inhibition rate is greater than 85%)	5 (Level 5: the growth inhibition rate is greater than 85%)
CC(C)CCCCCSC(=O)C(C)Oc1nc(F)c(Cl)c(N)c1Cl (stereo not drawn) [Compound 136]	5 (Level 5: the growth inhibition rate is greater than 85%)	5 (Level 5: the growth inhibition rate is greater than 85%)	5 (Level 5: the growth inhibition rate is greater than 85%)	5 (Level 5: the growth inhibition rate is greater than 85%)	5 (Level 5: the growth inhibition rate is greater than 85%)	5 (Level 5: the growth inhibition rate is greater than 85%)
CC(Oc1nc(F)c(Cl)c(N)c1Cl)C(=O)Sc1ccoc1 (stereo not drawn) [Compound 120]	5 (Level 5: the growth inhibition rate is greater than 85%)	5 (Level 5: the growth inhibition rate is greater than 85%)	5 (Level 5: the growth inhibition rate is greater than 85%)	5 (Level 5: the growth inhibition rate is greater than 85%)	5 (Level 5: the growth inhibition rate is greater than 85%)	5 (Level 5: the growth inhibition rate is greater than 85%)
